# Values of other authors, collected in US20220112625A1, “Diagnosing and Treating Neurological and Autoimmune Diseases by Optimizing Metabolic Responses” (priority 2017, published 2022).
# How the values were obtained:
# [1] = system: class I and class II PI3Ks
# PI3Kβ = PI3Kβ (Homo sapiens, UniProt P42338); settings: PI3Kγ versus PI3Kβ
# PI3Kδ = PI3Kδ (Homo sapiens, UniProt O00329); settings: PI3Kγ versus PI3Kδ
# PI3Kα = PI3Kα (Homo sapiens, UniProt P42336); settings: PI3Kγ versus PI3Kα
# mTOR = mTOR (Homo sapiens, UniProt P42345); settings: up to at least about 10 μM
# Sequence of PI3Kδ (O00329 whole entry, species assumed): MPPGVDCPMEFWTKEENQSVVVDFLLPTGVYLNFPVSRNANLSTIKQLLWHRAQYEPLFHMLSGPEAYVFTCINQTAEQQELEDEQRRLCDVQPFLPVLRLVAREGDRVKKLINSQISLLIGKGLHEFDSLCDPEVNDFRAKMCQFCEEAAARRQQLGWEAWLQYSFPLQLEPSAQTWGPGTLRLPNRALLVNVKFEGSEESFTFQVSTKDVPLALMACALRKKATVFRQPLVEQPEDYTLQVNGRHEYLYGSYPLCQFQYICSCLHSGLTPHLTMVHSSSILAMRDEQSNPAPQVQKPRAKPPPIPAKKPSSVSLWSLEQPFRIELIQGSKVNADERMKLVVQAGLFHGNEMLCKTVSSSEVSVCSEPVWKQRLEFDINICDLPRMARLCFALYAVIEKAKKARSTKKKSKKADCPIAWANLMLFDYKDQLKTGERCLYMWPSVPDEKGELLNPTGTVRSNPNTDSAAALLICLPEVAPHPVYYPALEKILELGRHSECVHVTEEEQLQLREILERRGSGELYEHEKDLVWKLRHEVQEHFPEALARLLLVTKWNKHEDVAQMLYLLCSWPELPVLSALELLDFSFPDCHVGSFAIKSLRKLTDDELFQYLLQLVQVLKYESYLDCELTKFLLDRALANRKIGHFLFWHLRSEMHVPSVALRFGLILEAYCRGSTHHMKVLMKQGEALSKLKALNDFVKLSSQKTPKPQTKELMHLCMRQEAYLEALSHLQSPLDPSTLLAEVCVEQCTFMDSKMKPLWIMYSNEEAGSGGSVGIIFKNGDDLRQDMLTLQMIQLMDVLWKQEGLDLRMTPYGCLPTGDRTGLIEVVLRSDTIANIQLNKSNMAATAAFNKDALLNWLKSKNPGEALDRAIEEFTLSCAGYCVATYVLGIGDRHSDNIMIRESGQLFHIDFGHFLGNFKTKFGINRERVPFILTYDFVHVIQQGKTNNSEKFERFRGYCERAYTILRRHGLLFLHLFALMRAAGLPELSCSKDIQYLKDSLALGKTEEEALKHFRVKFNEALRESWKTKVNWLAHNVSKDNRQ
# Sequence of PI3Kδ (P27986 whole entry partner, species assumed): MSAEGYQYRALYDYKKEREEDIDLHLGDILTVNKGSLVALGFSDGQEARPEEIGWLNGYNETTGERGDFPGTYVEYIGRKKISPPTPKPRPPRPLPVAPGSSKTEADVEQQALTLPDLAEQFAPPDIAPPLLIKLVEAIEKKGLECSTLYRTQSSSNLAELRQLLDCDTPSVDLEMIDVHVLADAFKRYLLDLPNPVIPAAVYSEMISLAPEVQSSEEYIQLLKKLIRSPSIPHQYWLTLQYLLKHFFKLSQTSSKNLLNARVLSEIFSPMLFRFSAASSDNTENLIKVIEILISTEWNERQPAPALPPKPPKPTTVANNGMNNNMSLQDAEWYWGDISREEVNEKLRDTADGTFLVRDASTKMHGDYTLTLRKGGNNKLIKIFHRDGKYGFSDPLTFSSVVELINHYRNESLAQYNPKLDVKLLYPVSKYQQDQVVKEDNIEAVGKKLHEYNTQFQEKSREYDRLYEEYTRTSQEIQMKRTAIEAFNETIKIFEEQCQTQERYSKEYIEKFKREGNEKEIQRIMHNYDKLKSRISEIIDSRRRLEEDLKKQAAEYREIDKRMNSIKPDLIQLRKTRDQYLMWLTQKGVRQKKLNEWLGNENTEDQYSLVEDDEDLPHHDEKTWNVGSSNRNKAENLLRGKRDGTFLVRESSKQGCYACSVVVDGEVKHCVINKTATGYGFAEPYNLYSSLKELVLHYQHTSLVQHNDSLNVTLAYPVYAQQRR
# Sequence of PI3Kα (P42336 whole entry, species assumed): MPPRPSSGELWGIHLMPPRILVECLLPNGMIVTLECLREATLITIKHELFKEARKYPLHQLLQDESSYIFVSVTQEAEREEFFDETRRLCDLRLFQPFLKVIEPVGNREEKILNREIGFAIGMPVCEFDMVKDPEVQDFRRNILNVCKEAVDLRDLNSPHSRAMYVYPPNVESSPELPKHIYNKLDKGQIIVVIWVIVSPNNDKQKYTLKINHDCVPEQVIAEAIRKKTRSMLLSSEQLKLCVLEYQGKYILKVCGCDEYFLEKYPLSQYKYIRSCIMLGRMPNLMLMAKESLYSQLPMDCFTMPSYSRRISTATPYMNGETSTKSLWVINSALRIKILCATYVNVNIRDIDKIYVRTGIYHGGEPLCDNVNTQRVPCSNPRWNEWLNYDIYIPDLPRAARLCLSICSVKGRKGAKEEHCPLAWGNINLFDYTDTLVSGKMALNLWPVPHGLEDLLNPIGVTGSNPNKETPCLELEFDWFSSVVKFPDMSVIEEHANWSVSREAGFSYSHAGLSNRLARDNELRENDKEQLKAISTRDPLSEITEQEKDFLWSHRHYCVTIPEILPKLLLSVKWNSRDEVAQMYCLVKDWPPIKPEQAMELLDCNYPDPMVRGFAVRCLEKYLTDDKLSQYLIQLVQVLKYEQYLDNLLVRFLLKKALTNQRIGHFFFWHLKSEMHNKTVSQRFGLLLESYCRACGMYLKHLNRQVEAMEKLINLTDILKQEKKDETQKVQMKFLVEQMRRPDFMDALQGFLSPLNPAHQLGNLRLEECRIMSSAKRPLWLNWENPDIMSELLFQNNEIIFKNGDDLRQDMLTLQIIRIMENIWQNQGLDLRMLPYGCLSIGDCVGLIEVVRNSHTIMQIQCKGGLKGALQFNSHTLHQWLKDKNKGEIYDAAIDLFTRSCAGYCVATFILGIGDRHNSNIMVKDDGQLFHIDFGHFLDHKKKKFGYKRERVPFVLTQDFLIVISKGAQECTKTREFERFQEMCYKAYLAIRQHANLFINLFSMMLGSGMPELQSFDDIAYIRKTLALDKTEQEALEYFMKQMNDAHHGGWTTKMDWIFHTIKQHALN
# Sequence of PI3Kα (P27986 whole entry partner, species assumed): as the sequence (P27986 whole entry partner, species assumed) above
# Sequence of PI3Kβ (P42338 whole entry, species assumed): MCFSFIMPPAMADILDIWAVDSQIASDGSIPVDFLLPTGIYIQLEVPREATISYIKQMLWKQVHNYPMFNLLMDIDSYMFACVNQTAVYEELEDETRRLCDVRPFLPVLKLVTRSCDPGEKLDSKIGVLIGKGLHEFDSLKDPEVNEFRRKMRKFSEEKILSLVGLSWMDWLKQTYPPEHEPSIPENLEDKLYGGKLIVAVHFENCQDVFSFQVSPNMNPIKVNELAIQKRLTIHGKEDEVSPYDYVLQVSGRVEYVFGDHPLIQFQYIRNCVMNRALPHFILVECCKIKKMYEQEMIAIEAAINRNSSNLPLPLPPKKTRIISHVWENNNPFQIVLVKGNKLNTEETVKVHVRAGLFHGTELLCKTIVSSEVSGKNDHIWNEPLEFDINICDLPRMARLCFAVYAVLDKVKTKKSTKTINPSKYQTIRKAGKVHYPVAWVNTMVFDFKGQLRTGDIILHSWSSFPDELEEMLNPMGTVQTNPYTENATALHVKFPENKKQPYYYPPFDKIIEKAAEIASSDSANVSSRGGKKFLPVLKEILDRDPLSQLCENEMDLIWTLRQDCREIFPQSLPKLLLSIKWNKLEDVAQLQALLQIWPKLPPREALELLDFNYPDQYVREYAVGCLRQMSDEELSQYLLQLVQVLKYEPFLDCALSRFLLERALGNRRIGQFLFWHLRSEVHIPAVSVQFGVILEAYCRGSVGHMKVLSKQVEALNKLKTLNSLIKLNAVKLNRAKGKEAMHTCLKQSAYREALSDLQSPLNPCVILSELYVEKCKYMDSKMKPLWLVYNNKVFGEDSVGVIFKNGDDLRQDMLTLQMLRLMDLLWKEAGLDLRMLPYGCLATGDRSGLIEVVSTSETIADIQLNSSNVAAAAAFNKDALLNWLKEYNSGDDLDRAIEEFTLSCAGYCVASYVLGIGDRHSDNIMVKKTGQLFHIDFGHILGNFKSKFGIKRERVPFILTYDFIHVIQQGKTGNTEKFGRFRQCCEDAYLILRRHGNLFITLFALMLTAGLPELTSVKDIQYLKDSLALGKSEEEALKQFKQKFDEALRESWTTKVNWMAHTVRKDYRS
# Sequence of PI3Kβ (P27986 whole entry partner, species assumed): as the sequence (P27986 whole entry partner, species assumed) above
smiles,measurement,setting,value
"CC(C)(O)CNc1ncc(-c2ccnc(Nc3ccnc(Cl)c3)n2)c(CC2CC2)n1 [VPS34-IN1, 1-[[2-[(2-chloro-4-pyridinyl)amino]-4′-(cyclopropylmethyl)[4,5′-bipyrimidin]-2′-yl]amino]-2-methyl-2-Propanol]",inhibition of the isoforms of class I as well as class II PI3Ks,[1],does not significantly inhibit
"CC(C)(C)NS(=O)(=O)c1cncc(-c2cc(F)c3nc(N)nn3c2)c1 [CZC24832, 5-(2-amino-8-fluoro [1,2,4]triazolo[1,5-a]pyridin-6-yl)-N-(1,1-dimethylethyl)-3-pyridinesulfonamide]",selectivity over PI3Kβ,PI3Kβ,10 fold
same,selectivity over PI3Kδ,PI3Kδ,> 100 fold
same,selectivity over PI3Kα,PI3Kα,> 100 fold
"C[C@@H]1COCCN1c1cc(=O)n2c(n1)N(Cc1cncc(Cl)c1)[C@H](C(F)(F)F)CC2 [SAR405, (8S)-9-[(5-chloro-3-pyridinyl)methyl]-6,7,8,9-tetrahydro-2-[(3R)-3-methyl-4-morpholinyl]-8-(trifluoromethyl)-4H-pyrimido[1,2-a]pyrimidin-4-one]",effect on class I and class II PI3Ks,[1]; up to at least about 10 μM,no effect
same,effect on mTOR,mTOR,no effect
